This is an account of results in paper PMC8230863 (The Journal of Venomous Animals and Toxins Including …, 2021).

Bridge positions count the residues as written; N and C are the ends. Peptide text beside a SMILES is read from it.

In general, IC50 refers to the concentration at which inhibition is half-maximal.

Common to all, as to assay type: cell-based
The subject of assay [1] is sodium channel currents in rat DRG neurons. The conditions noted are these: 10 μM; n = 3.
The test system of assay [2] is potassium channel currents in rat DRG neurons. Particulars: 10 μM.
For assay [3], the system named is calcium channel currents in rat DRG neurons.
The next assay relates to human Cav2.2. Particulars: 10 μM; SD.

Take `CSCC[C@@H]1NC(=O)[C@H](CCC(N)=O)NC(=O)[C@@H]2CSSC[C@@H](C(=O)N3CCC[C@H]3C(N)=O)NC(=O)[C@@H]3CSSC[C@H](NC(=O)[C@@H](NC(=O)CNC(=O)[C@@H](N)CCC(N)=O)CSSC[C@H](NC(=O)[C@H](C)NC(=O)[C@H](C)NC1=O)C(=O)N[C@@H](CC(N)=O)C(=O)N1CCC[C@H]1C(=O)N1CCC[C@H]1C(=O)N1CCC[C@H]1C(=O)N3)C(=O)N1CCC[C@H]1C(=O)N1CCC[C@H]1C(=O)NCC(=O)N[C@@H](C(C)C)C(=O)N2` [Vr3a] (H-QGCCPPGVCQMAACNPPPCCP-NH2; disulfide 3-14, 4-19, 9-20): in assay [1], the “effect on the peak of the sodium currents” value is given as “no effects”, the “shift in the activation curve of sodium channels (change of V50)” value is given as ~ 10 mV, the “shift in the current-voltage relationship of sodium channels” value is ~ 10 mV and the “shift in the inactivation curve of sodium channels (change of V50)” value is given as ~ 5 mV. Also, in assay [1], the “shift in the recovery curve, delaying sodium channel recovery” value is ~ 0.002 second. In assay [2] (SD), the “increase of the peak potassium currents” value was determined as 19.61 ± 5.12%. For the same compound, the “shift in the current-voltage relationship of potassium channels” value in assay [2] (n = 3) is “do not induce a shift”. In addition, the “inhibition of the peak calcium currents” value in assay [3] (10 μM, SD) is reported as 31.26% ± 4.53%. Also, in assay [3] (10 μM, n = 3), the “shift in the current-voltage relationship of calcium channels” value is given as “do not induce a shift”. Also, the half-maximal inhibitory concentration (IC50) in assay [3] (SD) was determined as 19.3 ± 4.32 µM. Also, the “inhibition of human Cav2.2 currents” value in the assay on human Cav2.2 was 12.86% ± 4.93%.
